Reference: PubChem BioAssay (NCI)
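Dose response: 5 concentrations. Exposure: 48 h. Format: 96-well plates. Endpoint: linear interpolation; highest concentration if not reached. The concentration for full growth arrest is given as TGI.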

What was measured:
Assay in all cases: NCI-60 cell line screen, 48 h
786-0 renal = tested on: 786-0 renal
A498 renal = tested on: A498 renal
A549 NSCLC = tested on: A549 NSCLC
ACHN renal = tested on: ACHN renal
BT-549 breast = tested on: BT-549 breast
CAKI-1 renal = tested on: CAKI-1 renal
CCRF-CEM leukemia = tested on: CCRF-CEM leukemia
COLO 205 colon = tested on: COLO 205 colon
DU-145 prostate = tested on: DU-145 prostate
EKVX NSCLC = tested on: EKVX NSCLC
HCC-2998 colon = tested on: HCC-2998 colon
HCT-116 colon = tested on: HCT-116 colon
HCT-15 colon = tested on: HCT-15 colon
HL-60(TB) leukemia = tested on: HL-60(TB) leukemia
HOP-62 NSCLC = tested on: HOP-62 NSCLC
HOP-92 NSCLC = tested on: HOP-92 NSCLC
HS 578T breast = tested on: HS 578T breast
HT29 colon = tested on: HT29 colon
IGROV1 ovarian = tested on: IGROV1 ovarian
K-562 leukemia = tested on: K-562 leukemia
KM12 colon = tested on: KM12 colon
LOX IMVI melanoma = tested on: LOX IMVI melanoma
M14 melanoma = tested on: M14 melanoma
MALME-3M melanoma = tested on: MALME-3M melanoma
MCF7 breast = tested on: MCF7 breast
MDA-MB-231 breast = tested on: MDA-MB-231 breast
MDA-MB-435 = tested on: MDA-MB-435
MDA-N = tested on: MDA-N
MOLT-4 leukemia = tested on: MOLT-4 leukemia
NCI-H23 lung = tested on: NCI-H23 lung
NCI-H460 lung = tested on: NCI-H460 lung
NCI-H522 lung = tested on: NCI-H522 lung
NCI/ADR-RES ovarian = tested on: NCI/ADR-RES ovarian
OVCAR-3 ovarian = tested on: OVCAR-3 ovarian
OVCAR-4 ovarian = tested on: OVCAR-4 ovarian
OVCAR-5 ovarian = tested on: OVCAR-5 ovarian
OVCAR-8 ovarian = tested on: OVCAR-8 ovarian
PC-3 prostate = tested on: PC-3 prostate
RPMI-8226 leukemia = tested on: RPMI-8226 leukemia
RXF 393 renal = tested on: RXF 393 renal
SF-268 CNS = tested on: SF-268 CNS
SF-295 CNS = tested on: SF-295 CNS
SF-539 CNS = tested on: SF-539 CNS
SK-MEL-2 melanoma = tested on: SK-MEL-2 melanoma
SK-MEL-28 melanoma = tested on: SK-MEL-28 melanoma
SK-MEL-5 melanoma = tested on: SK-MEL-5 melanoma
SK-OV-3 ovarian = tested on: SK-OV-3 ovarian
SN12C renal = tested on: SN12C renal
SNB-19 CNS = tested on: SNB-19 CNS
SNB-75 CNS = tested on: SNB-75 CNS
SW-620 colon = tested on: SW-620 colon
T-47D breast = tested on: T-47D breast
TK-10 renal = tested on: TK-10 renal
U251 CNS = tested on: U251 CNS
UACC-257 melanoma = tested on: UACC-257 melanoma
UACC-62 melanoma = tested on: UACC-62 melanoma
UO-31 renal = tested on: UO-31 renal
NCI-H226 lung = tested on: NCI-H226 lung
SR leukemia = tested on: SR leukemia

Nc1ncnc2c1ccn2CC#CCO was tested, and the TGI (786-0 renal) was greater than 100 µM, the TGI (A498 renal) was greater than 100 µM and the TGI (A549 NSCLC) was greater than 100 µM. It also gave a TGI (ACHN renal) greater than 100 µM, a TGI (BT-549 breast) greater than 100 µM and a TGI (CAKI-1 renal) greater than 100 µM. It also gave a TGI (CCRF-CEM leukemia) greater than 100 µM, a TGI (COLO 205 colon) greater than 100 µM and a TGI (DU-145 prostate) greater than 100 µM. For the same compound, the TGI (EKVX NSCLC) was greater than 100 µM, the TGI (HCC-2998 colon) was greater than 100 µM and the TGI (HCT-116 colon) was greater than 100 µM. The TGI (HCT-15 colon) was greater than 100 µM, the TGI (HL-60(TB) leukemia) was greater than 100 µM and the TGI (HOP-62 NSCLC) was greater than 100 µM. For the same compound, the TGI (HOP-92 NSCLC) was greater than 100 µM, the TGI (HS 578T breast) was greater than 100 µM and the TGI (HT29 colon) was greater than 100 µM. For the same compound, the TGI (IGROV1 ovarian) was greater than 100 µM, the TGI (K-562 leukemia) was greater than 100 µM and the TGI (KM12 colon) was greater than 100 µM. The TGI (LOX IMVI melanoma) was greater than 100 µM, the TGI (M14 melanoma) was greater than 100 µM and the TGI (MALME-3M melanoma) was greater than 100 µM. The TGI (MCF7 breast) was greater than 100 µM, the TGI (MDA-MB-231 breast) was greater than 100 µM and the TGI (MDA-MB-435) was greater than 100 µM. It also gave a TGI (MDA-N) greater than 100 µM, a TGI (MOLT-4 leukemia) greater than 100 µM and a TGI (NCI-H23 lung) greater than 100 µM. For the same compound, the TGI (NCI-H460 lung) was greater than 100 µM, the TGI (NCI-H522 lung) was greater than 100 µM and the TGI (NCI/ADR-RES ovarian) was greater than 100 µM. The TGI (OVCAR-3 ovarian) was greater than 100 µM, the TGI (OVCAR-4 ovarian) was greater than 100 µM and the TGI (OVCAR-5 ovarian) was greater than 100 µM. It also gave a TGI (OVCAR-8 ovarian) greater than 100 µM, a TGI (PC-3 prostate) greater than 100 µM and a TGI (RPMI-8226 leukemia) greater than 100 µM. It also gave a TGI (RXF 393 renal) greater than 100 µM, a TGI (SF-268 CNS) greater than 100 µM and a TGI (SF-295 CNS) greater than 100 µM. The TGI (SF-539 CNS) was greater than 100 µM, the TGI (SK-MEL-2 melanoma) was greater than 100 µM and the TGI (SK-MEL-28 melanoma) was greater than 100 µM. The TGI (SK-MEL-5 melanoma) was greater than 100 µM, the TGI (SK-OV-3 ovarian) was greater than 100 µM and the TGI (SN12C renal) was greater than 100 µM. The TGI (SNB-19 CNS) was greater than 100 µM, the TGI (SNB-75 CNS) was greater than 100 µM and the TGI (SW-620 colon) was greater than 100 µM. The TGI (T-47D breast) was greater than 100 µM, the TGI (TK-10 renal) was greater than 100 µM and the TGI (U251 CNS) was greater than 100 µM. The TGI (UACC-257 melanoma) was greater than 100 µM, the TGI (UACC-62 melanoma) was greater than 100 µM and the TGI (UO-31 renal) was greater than 100 µM.
Compound CCOC(=O)c1sc2nc(SC)nc3c2c1NC(=O)CN3c1ccc(F)cc1 has a TGI (A498 renal) of 98.7 µM, a TGI (A549 NSCLC) of 50.9 µM and a TGI (ACHN renal) of 93.4 µM. It also gave a TGI (BT-549 breast) of 43.3 µM, a TGI (CAKI-1 renal) greater than 100 µM and a TGI (CCRF-CEM leukemia) of 78.4 µM. It also gave a TGI (COLO 205 colon) greater than 100 µM, a TGI (DU-145 prostate) of 97.9 µM and a TGI (EKVX NSCLC) greater than 100 µM. For the same compound, the TGI (HCC-2998 colon) was greater than 100 µM, the TGI (HCT-116 colon) was greater than 100 µM and the TGI (HL-60(TB) leukemia) was greater than 100 µM. For the same compound, the TGI (HOP-62 NSCLC) was 33.7 µM, the TGI (HOP-92 NSCLC) was greater than 100 µM and the TGI (HS 578T breast) was 53.3 µM. For the same compound, the TGI (HT29 colon) was greater than 100 µM, the TGI (IGROV1 ovarian) was greater than 100 µM and the TGI (K-562 leukemia) was greater than 100 µM. It also gave a TGI (KM12 colon) greater than 100 µM, a TGI (LOX IMVI melanoma) greater than 100 µM and a TGI (M14 melanoma) greater than 100 µM. It also gave a TGI (MALME-3M melanoma) greater than 100 µM, a TGI (MCF7 breast) greater than 100 µM and a TGI (MDA-MB-231 breast) greater than 100 µM. It also gave a TGI (MDA-MB-435) greater than 100 µM, a TGI (MDA-N) greater than 100 µM and a TGI (MOLT-4 leukemia) greater than 100 µM. For the same compound, the TGI (NCI-H226 lung) was 91.5 µM, the TGI (NCI-H23 lung) was greater than 100 µM and the TGI (NCI-H460 lung) was greater than 100 µM. It also gave a TGI (NCI-H522 lung) greater than 100 µM, a TGI (OVCAR-3 ovarian) greater than 100 µM and a TGI (OVCAR-4 ovarian) greater than 100 µM. For the same compound, the TGI (OVCAR-5 ovarian) was greater than 100 µM, the TGI (OVCAR-8 ovarian) was 69.1 µM and the TGI (PC-3 prostate) was 37 µM. It also gave a TGI (RPMI-8226 leukemia) greater than 100 µM, a TGI (RXF 393 renal) of 41.8 µM and a TGI (SF-268 CNS) of 36.2 µM. The TGI (SF-295 CNS) was 57.9 µM, the TGI (SF-539 CNS) was 33.3 µM and the TGI (SK-MEL-2 melanoma) was greater than 100 µM. It also gave a TGI (SK-MEL-28 melanoma) of 82.6 µM, a TGI (SK-MEL-5 melanoma) greater than 100 µM and a TGI (SK-OV-3 ovarian) of 57.7 µM. The TGI (SN12C renal) was 69.1 µM, the TGI (SNB-19 CNS) was greater than 100 µM and the TGI (SR leukemia) was greater than 100 µM. For the same compound, the TGI (SW-620 colon) was greater than 100 µM, the TGI (TK-10 renal) was greater than 100 µM and the TGI (U251 CNS) was greater than 100 µM. It also gave a TGI (UACC-257 melanoma) greater than 100 µM, a TGI (UACC-62 melanoma) greater than 100 µM and a TGI (UO-31 renal) of 46.9 µM.
